A value given as a limit tells only on which side of the number the result lay.

As a reminder, the IC50 is the concentration that gives 50% inhibition.

The target in test [1] is T1, Polyamine deacetylase HDAC10 (Homo sapiens, UniProt Q969S8).
T1 sequence (Q969S8 whole entry): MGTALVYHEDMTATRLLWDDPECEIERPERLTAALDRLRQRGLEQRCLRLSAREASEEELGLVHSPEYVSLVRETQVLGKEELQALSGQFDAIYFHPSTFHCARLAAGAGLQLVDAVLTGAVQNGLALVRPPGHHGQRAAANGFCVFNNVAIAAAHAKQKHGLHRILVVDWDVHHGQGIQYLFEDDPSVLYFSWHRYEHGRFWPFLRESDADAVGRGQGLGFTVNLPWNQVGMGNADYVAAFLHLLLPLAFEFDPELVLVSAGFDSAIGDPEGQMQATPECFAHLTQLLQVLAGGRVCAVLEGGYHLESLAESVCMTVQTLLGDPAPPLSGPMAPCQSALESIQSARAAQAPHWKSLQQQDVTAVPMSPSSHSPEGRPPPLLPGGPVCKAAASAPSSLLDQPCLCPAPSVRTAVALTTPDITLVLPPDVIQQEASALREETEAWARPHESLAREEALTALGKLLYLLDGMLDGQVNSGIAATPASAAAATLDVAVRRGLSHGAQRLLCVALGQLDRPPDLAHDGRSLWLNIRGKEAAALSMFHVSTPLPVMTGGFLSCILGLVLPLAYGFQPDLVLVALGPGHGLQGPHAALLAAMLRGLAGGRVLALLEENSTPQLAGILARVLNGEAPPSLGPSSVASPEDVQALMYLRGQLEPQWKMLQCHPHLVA
The test can be described thus: Inhibition of recombinant full-length human HDAC10 using FITC-H3K27(Ac)-NH2 as substrate by electrophoretic mobility shift assay.

Another test concerns the target T2, Histone deacetylase 8 (Homo sapiens, UniProt Q9BY41).
T2 sequence (Q9BY41 whole entry): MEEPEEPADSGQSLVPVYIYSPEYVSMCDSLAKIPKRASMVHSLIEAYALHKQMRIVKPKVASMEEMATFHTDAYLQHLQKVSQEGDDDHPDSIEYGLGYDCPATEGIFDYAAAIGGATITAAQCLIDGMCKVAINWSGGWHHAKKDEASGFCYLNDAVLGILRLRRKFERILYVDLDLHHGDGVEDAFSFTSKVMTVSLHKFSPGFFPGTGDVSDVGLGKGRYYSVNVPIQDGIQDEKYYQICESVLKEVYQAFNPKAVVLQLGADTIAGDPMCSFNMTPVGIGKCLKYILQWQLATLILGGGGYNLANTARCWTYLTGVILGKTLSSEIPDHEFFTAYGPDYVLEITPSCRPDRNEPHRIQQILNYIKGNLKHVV
Kind of test: Inhibition of recombinant full-length human HDAC8 using FAM-RHKK(Ac)-NH2 as substrate by electrophoretic mobility shift assay. Background: A gel shift assay detects complexes by their altered migration in electrophoresis.

For another test, the target named is Histone deacetylase 1 (Homo sapiens, UniProt Q13547). The test can be described thus: Inhibition of recombinant full-length human HDAC1 using FITC-H3K27(Ac)-NH2 as substrate by electrophoretic mobility shift assay.
A further test has as its target T3, Histone deacetylase 7 (Homo sapiens, UniProt Q8WUI4).
T3 sequence (Q8WUI4 whole entry): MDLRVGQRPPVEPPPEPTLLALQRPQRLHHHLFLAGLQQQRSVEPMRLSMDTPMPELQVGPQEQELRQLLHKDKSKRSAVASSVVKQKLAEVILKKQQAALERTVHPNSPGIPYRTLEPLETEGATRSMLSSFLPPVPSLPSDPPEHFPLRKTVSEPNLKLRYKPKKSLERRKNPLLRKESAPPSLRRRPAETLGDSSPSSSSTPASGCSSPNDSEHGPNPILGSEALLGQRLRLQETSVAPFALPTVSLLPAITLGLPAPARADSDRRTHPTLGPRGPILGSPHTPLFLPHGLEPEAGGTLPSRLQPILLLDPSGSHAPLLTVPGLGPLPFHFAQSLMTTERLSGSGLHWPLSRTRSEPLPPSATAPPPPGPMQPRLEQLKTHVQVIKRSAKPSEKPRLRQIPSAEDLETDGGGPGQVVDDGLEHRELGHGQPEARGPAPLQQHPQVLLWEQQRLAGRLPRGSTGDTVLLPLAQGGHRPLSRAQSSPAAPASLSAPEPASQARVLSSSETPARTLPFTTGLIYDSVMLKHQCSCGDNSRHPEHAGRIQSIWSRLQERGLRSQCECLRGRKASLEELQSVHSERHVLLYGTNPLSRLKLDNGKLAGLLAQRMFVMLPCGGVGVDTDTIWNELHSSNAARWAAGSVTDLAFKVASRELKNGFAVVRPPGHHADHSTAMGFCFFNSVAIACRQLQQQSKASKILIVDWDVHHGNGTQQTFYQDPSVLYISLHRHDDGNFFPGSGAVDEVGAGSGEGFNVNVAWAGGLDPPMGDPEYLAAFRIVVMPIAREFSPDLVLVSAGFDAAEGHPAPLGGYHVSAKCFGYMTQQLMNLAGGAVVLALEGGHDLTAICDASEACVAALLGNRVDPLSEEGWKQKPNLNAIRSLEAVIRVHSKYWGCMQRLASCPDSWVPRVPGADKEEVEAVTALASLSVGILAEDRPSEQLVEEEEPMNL
Kind of test: Inhibition of recombinant full-length human HDAC7 using FAM-RHKK (trifluor-Ac)-NH2 as substrate by electrophoretic mobility shift assay.

A further test addresses Histone deacetylase 9 (Homo sapiens, UniProt Q9UKV0). Kind of test: Inhibition of recombinant full-length human HDAC9 using FAM-RHKK (trifluor-Ac)-NH2 as substrate by electrophoretic mobility shift assay.
The next test addresses T4, Histone deacetylase 11 (Homo sapiens, UniProt Q96DB2).
T4 sequence (Q96DB2 whole entry): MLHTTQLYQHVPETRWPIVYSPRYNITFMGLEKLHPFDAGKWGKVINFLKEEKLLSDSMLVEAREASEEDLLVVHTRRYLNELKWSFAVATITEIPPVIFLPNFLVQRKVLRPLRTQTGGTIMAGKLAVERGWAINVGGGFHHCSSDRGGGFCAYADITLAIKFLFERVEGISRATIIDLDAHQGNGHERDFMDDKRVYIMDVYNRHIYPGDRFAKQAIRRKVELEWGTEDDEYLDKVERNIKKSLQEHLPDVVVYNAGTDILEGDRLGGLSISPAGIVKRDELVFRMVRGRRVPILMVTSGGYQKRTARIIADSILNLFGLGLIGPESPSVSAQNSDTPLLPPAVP
The test can be described thus: Inhibition of recombinant full-length human HDAC11 using FAM-RHKK (trifluor-Ac)-NH2 as substrate by electrophoretic mobility shift assay.

The next test has as its target Histone deacetylase 2 (Homo sapiens, UniProt Q92769). The test can be described thus: Inhibition of recombinant full-length human HDAC2 using FITC-H3K27(Ac)-NH2 as substrate by electrophoretic mobility shift assay.

Histone deacetylase 2, sequence (Q92769 whole entry): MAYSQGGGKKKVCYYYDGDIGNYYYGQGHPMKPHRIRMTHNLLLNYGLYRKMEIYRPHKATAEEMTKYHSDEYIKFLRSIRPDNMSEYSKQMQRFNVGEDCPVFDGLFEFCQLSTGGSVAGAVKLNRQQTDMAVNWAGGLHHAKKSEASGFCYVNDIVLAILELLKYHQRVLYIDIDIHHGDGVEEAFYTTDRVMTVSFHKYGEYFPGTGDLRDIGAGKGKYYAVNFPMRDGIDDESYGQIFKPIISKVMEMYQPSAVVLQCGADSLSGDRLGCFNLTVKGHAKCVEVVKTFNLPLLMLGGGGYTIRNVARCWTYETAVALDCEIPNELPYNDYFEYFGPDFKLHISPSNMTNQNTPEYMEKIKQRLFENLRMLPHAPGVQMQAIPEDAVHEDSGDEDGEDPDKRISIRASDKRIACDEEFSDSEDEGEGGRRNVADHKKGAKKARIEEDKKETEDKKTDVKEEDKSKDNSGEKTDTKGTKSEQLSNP
Histone deacetylase 1, sequence (Q13547 whole entry): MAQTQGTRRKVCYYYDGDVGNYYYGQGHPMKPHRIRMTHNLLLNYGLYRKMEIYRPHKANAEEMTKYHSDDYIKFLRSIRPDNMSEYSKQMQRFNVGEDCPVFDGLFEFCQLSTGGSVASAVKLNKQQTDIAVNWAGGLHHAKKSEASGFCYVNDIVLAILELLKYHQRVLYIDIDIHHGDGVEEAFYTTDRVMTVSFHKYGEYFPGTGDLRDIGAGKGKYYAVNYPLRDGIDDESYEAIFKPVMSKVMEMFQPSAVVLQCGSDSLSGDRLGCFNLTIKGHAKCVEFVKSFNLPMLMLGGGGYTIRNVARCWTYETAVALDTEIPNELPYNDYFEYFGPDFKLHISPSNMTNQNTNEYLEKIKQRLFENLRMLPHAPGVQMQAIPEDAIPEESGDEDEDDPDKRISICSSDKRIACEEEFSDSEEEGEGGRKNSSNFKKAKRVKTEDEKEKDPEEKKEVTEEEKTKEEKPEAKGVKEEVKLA
Histone deacetylase 9, sequence (Q9UKV0 whole entry): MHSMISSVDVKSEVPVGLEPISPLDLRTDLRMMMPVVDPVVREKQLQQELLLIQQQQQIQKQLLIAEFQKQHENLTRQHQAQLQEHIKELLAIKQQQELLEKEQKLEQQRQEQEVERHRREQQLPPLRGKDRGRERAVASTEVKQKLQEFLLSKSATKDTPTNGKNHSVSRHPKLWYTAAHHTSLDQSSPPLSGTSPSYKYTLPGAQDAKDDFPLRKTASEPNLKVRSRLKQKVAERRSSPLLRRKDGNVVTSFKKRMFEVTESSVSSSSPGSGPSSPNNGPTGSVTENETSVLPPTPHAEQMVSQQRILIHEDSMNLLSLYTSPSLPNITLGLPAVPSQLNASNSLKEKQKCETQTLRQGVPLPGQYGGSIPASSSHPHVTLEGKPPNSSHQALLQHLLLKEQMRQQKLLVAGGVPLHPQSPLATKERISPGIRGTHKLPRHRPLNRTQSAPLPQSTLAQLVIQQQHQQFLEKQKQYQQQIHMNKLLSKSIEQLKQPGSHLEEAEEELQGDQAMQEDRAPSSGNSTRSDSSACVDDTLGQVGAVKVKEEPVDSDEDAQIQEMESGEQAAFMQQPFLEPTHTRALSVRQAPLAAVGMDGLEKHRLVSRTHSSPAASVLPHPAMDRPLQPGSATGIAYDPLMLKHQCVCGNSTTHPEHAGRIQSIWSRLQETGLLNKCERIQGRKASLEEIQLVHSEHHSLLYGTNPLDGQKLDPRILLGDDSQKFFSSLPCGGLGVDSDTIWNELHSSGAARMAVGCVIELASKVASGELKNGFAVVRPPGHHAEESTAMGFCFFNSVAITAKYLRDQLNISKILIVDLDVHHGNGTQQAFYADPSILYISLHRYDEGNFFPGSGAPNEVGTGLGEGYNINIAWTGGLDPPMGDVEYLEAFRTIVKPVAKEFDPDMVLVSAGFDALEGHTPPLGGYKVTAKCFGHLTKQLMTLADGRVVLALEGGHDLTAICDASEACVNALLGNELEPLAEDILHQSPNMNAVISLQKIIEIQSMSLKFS

For `O=C(NCC12C[C@H]3C[C@@H](C1)C[C@@H](C2)C3)c1ccc2c(ccn2Cc2ccc(C(=O)NO)c(Cl)c2)c1`, the IC50 was 9.05 µM in test [1]; 410 nM at Histone deacetylase 8; greater than 10 µM on Histone deacetylase 1; 570 nM at Histone deacetylase 7; 4.53 µM on Histone deacetylase 9; 140 nM on Histone deacetylase 11. Further, on Histone deacetylase 2, the IC50 was greater than 10 µM.

The values are drawn from ChEMBL document CHEMBL5375948, “Development and Pharmacochemical Characterization Discover a Novel Brain-Permeable HDAC11-Selective Inhibitor with Therapeutic Potential by Regulating Neuroinflammation in Mice” (J Med Chem, 2023).
